Test results from the NIST ThermoML archive (doi:10.1021/je7005538).
Values joined by “and” are separate entries in the source; they are usually repeats but may differ in a detail not shown here. Identical values can stand only once.

Assay: xn = mol fraction of the nth substance listed
Details: Fluid (supercritical or subcritical phases), Vibrating tube method

Cc1c(C)c2c(c(C)c1O)CC[C@@](C)(CCC[C@H](C)CCC[C@H](C)CCCC(C)C)O2 [(+)-α-tocopherol] + O=C=O
mass density
Details | x1 = 0.0004 | x1 = 0.00042 | x1 = 0.00043 | x1 = 0.0005 | x1 = 0.00059 | x1 = 0.00074 | x1 = 0.00081
308.15 K, 10000 kPa | 720.4 kg/m3 | 718.9 kg/m3 and 720.9 kg/m3 | 720.6 kg/m3 | 720.3 kg/m3 | 720.2 kg/m3 | 721.2 kg/m3 | 720.9 kg/m3
308.15 K, 15000 kPa | 817.8 kg/m3 | 816.9 kg/m3 and 818.1 kg/m3 | 818.2 kg/m3 | 817.9 kg/m3 | 817.8 kg/m3 | 818.6 kg/m3 | 818.7 kg/m3
308.15 K, 20000 kPa | 867.2 kg/m3 | 866.7 kg/m3 and 867.6 kg/m3 | 867.5 kg/m3 | 867.4 kg/m3 | 867.3 kg/m3 | 868 kg/m3 | 868.2 kg/m3
308.15 K, 30000 kPa | 929.5 kg/m3 | 929.3 kg/m3 and 929.6 kg/m3 | 929.6 kg/m3 | 929.6 kg/m3 | 929.6 kg/m3 | 930 kg/m3 | 930.1 kg/m3
308.15 K, 40000 kPa | 971.9 kg/m3 | 971.9 kg/m3 and 972 kg/m3 | 972 kg/m3 | 972 kg/m3 | 972 kg/m3 | 972.2 kg/m3 | 972.3 kg/m3
313.15 K, 10000 kPa | 639 kg/m3 | 639 kg/m3 and 638.8 kg/m3 | 638.7 kg/m3 | 639.4 kg/m3 | 638.9 kg/m3 | 640 kg/m3 | 639.8 kg/m3
313.15 K, 15000 kPa | 782.3 kg/m3 | 782.6 kg/m3 and 782.3 kg/m3 | 782.5 kg/m3 | 782.8 kg/m3 | 782.4 kg/m3 | 783.3 kg/m3 | 783.1 kg/m3
313.15 K, 20000 kPa | 841 kg/m3 | 841.2 kg/m3 and 840.9 kg/m3 | 841.2 kg/m3 | 841.3 kg/m3 | 841.1 kg/m3 | 841.7 kg/m3 | 841.6 kg/m3
313.15 K, 30000 kPa | 910.2 kg/m3 | 910.3 kg/m3 and 910.1 kg/m3 | 910.3 kg/m3 | 910.4 kg/m3 | 910.3 kg/m3 | 910.7 kg/m3 | 910.6 kg/m3
313.15 K, 40000 kPa | 955.9 kg/m3 | 955.9 kg/m3 and 955.7 kg/m3 | 955.9 kg/m3 | 955.9 kg/m3 | 956 kg/m3 | 956.1 kg/m3 | 956 kg/m3
323.15 K, 10000 kPa | 398.5 kg/m3 | 398.3 kg/m3 and 398.5 kg/m3 | 398.3 kg/m3 | 398.4 kg/m3 | 398.8 kg/m3 | 398.9 kg/m3 | 398.7 kg/m3
323.15 K, 15000 kPa | 703.6 kg/m3 | 703.1 kg/m3 and 703.4 kg/m3 | 703.4 kg/m3 | 703.5 kg/m3 | 703.4 kg/m3 | 704.1 kg/m3 | 704.1 kg/m3
323.15 K, 20000 kPa | 786.2 kg/m3 | 785.8 kg/m3 and 786 kg/m3 | 786 kg/m3 | 786 kg/m3 | 786 kg/m3 | 786.6 kg/m3 | 786.6 kg/m3
323.15 K, 30000 kPa | 871.2 kg/m3 | 870.9 kg/m3 and 871.1 kg/m3 | 871 kg/m3 | 871.1 kg/m3 | 871.1 kg/m3 | 871.5 kg/m3 | 871.6 kg/m3
323.15 K, 40000 kPa | 923.3 kg/m3 | 923.1 kg/m3 and 923.3 kg/m3 | 923.3 kg/m3 | 923.3 kg/m3 | 923.2 kg/m3 | 923.6 kg/m3 | 923.6 kg/m3
333.15 K, 10000 kPa | 297.2 kg/m3 | 297.1 kg/m3 and 296.8 kg/m3 | 296.9 kg/m3 | 297.1 kg/m3 | 297.3 kg/m3 | 297.7 kg/m3 | 297.7 kg/m3
333.15 K, 15000 kPa | 608.6 kg/m3 | 608.9 kg/m3 and 608.8 kg/m3 | 608.7 kg/m3 | 608.7 kg/m3 | 609.3 kg/m3 | 609.3 kg/m3 | 609.4 kg/m3
333.15 K, 20000 kPa | 725.7 kg/m3 | 725.6 kg/m3 and 725.5 kg/m3 | 725.5 kg/m3 | 725.7 kg/m3 | 725.8 kg/m3 | 726.1 kg/m3 | 726.2 kg/m3
333.15 K, 30000 kPa | 830.3 kg/m3 | 830.3 kg/m3 and 830.2 kg/m3 | 830.2 kg/m3 | 830.3 kg/m3 | 830.5 kg/m3 | 830.7 kg/m3 | 830.7 kg/m3
333.15 K, 40000 kPa | 890.2 kg/m3 | 890.2 kg/m3 and 890.1 kg/m3 | 890.1 kg/m3 | 890.1 kg/m3 | 890.3 kg/m3 | 890.5 kg/m3 | 890.5 kg/m3
